Source: paper PMC3861733 (Molecular & Cellular Proteomics : MCP, 2013)

T1: Saci-PP2A (Sulfolobus acidocaldarius, UniProt Q4JAD1)
T1 sequence (Q4JAD1 1-293): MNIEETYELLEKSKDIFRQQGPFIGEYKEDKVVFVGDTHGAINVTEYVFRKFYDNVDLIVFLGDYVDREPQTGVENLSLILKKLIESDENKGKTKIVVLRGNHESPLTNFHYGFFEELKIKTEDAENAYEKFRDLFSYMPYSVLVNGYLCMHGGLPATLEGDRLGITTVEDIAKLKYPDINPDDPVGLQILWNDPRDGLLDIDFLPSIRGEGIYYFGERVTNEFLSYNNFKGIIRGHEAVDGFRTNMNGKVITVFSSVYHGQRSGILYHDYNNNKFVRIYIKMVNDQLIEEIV

B1: Saci-PTP (Sulfolobus acidocaldarius DSM 639) (protein)
chain: MYWVKKHVIGGSAIPYTQDEIIGWINEGVKRVLVLPEEFEIDEAWGSLEYYISVLKSFNIEYLYSPIPDGRAPSENQFLEIYKWLRKDKGNLVHCVGGIGRTGTILASYLVLEENMSAEEAIEEVRRVRPGAVQTYEQELFVFKVEKMKDKWKIL

Legend:
Saci-PP2A = target: T1, Saci-PP2A; assay: malachite green phosphate release assay, inhibition; assay type: biochemical; conditions: read-out: % activity at 10 nM
purified protein = substrate: O=[N+]([O-])c1ccc(OP(=O)(O)O)cc1; assay: purified protein; assay type: biochemical, Sulfolobus acidocaldarius; conditions: 0.1 M HEPES/KOH pH 6.5, 70 °C, substrate inhibition above 2 mM

| Molecule | activity at 0.01 µM (Saci-PP2A) | Vmax (purified protein) |
| --- | --- | --- |
| C=C1[C@@H](O)[C@@H]2O[C@]3(CC[C@H](/C=C/[C@@H](C)[C@@H]4CC(C)=C[C@@]5(O[C@H](C[C@@](C)(O)C(=O)O)CC[C@H]5O)O4)O3)CC[C@H]2O[C@@H]1[C@@H](O)C[C@H](C)[C@H]1O[C@@]2(CCCCO2)CC[C@H]1C [okadaic acid] | 56% | – |
| B1 | – | 3.7 µmol/min/mg |
